Data: patent publication US20230276831A1, “Food/Beverage Article” (Kikkoman Corporation, priority 2020, published 2023)

System: Lactobacillus acidipiscis NBRC 102163
Experiment: Antimicrobial action of licoricidin in liquid seasoning (1), lactic acid bacteria C
Format: cell-based
Set-up: key: A: The bacterial count decreases to less than 10% of the bacterial count of the control group.; B: The bacterial count decreases to 10% or more and less than 50% of the bacterial count of the control group.; C: The bacterial count decreases to 50% or more and less than 100% of the bacterial count of control group.; D: The bacterial count is the same as the bacterial count of the control group
Experimental: Commercially available whole soybean soy sauce (produced by Kikkoman Corporation) was electrodialyzed and then concentrated under reduced pressure to obtain soy sauce at a salt concentration of 0% (w/v) and an alcohol concentration of 0% (v/v). Then, salt and/or alcohol was added to the above-mentioned obtained soy sauce, and the mixture was heat-treated to produce soy sauces at salt concentrations and alcohol concentrations shown in the following Table 5. The pHs of the soy sauces were 4.9 to 5.0.
Specifically, components contained in dried bonito was extracted with alcohol and water; sugar, salt, and seasonings were blended with the obtained extract; and the resulting mixture was heated to produce bonito stock. The salt concentration of the obtained bonito stock was 0.2% (w/v), the alcohol concentration was 0.15% (v/v), and the pH was 6.1.
Specifically, Koikuchi soy sauce (produced by Kikkoman Corporation), granulated sugar, potato starch, and water were blended in amounts shown in following Table 7, and the resulting mixture was heated to produce sauce. The salt concentration of the obtained sauce was 5.3% (w/v), the alcohol concentration was 0.8% (v/v), and the pH was 5.0.
Specifically, the components contained in dried bonito was extracted with water; Koikuchi soy sauce (produced by Kikkoman Corporation), sugar, and salt were blended with the obtained extract; and the resulting mixture was heated to produce Japanese seasoned soup stock. The salt concentration of the obtained Japanese seasoned soup stock was 3% (w/v), the alcohol concentration was 0.4% (v/v), and the pH was 5.5.
Licoricidin (produced by ChemFaces) was added to each of the liquid seasonings produced in the above-mentioned (1) to concentrations of 1 ppm, 5 ppm, 10 ppm, 25 ppm, and 50 ppm. Lactic acid bacteria described in the following Table 9 were then added to 10^6 to 10^7 cells/mL and cultured at 30° C. for 7 days. After the culture, the number of lactic acid bacteria was measured using the GAM agar medium “Nissui”. Liquid seasoning to which licoricidin was not added was used as a control group, and the antimicrobial activity was evaluated in comparison with the number of lactic acid bacteria in the control group. The evaluation was performed using the criterion shown below.
• A: The bacterial count decreases to less than 10% of the bacterial count of the control group. • B: The bacterial count decreases to 10% or more and less than 50% of the bacterial count of the control group. • C: The bacterial count decreases to 50% or more and less than 100% of the bacterial count of control group. • D: The bacterial count is the same as the bacterial count of the control group.

Structure (SMILES): COc1c(CC=C(C)C)c(O)cc2c1C[C@H](c1ccc(O)c(CC=C(C)C)c1O)CO2 [Licoricidin, 4-[(R)-7-hydroxy-5-methoxy-6-(3-methyl-2-butenyl)chroman-3-yl]-2-(3-methyl-2-butenyl)-1,3-benzenediol]
- Antimicrobial activity (Bonito stock (salt 0.2% (w/v), alcohol 0.15% (v/v), pH 6.1), licoricidin 1 ppm): C (The bacterial count decreases to 50% or more and less than 100% of the bacterial count of control group.)
- Antimicrobial activity (Bonito stock (salt 0.2% (w/v), alcohol 0.15% (v/v), pH 6.1), licoricidin 5 ppm): A (The bacterial count decreases to less than 10% of the bacterial count of the control group.)
- Antimicrobial activity (Bonito stock (salt 0.2% (w/v), alcohol 0.15% (v/v), pH 6.1), licoricidin 10 ppm): A (The bacterial count decreases to less than 10% of the bacterial count of the control group.)
- Antimicrobial activity (Bonito stock (salt 0.2% (w/v), alcohol 0.15% (v/v), pH 6.1), licoricidin 25 ppm): A (The bacterial count decreases to less than 10% of the bacterial count of the control group.)
- Antimicrobial activity (Bonito stock (salt 0.2% (w/v), alcohol 0.15% (v/v), pH 6.1), licoricidin 50 ppm): A (The bacterial count decreases to less than 10% of the bacterial count of the control group.)
- Antimicrobial activity (Japanese seasoned soup stock (salt 3% (w/v), alcohol 0.4% (v/v), pH 5.5), licoricidin 1 ppm): D
- Antimicrobial activity (Japanese seasoned soup stock (salt 3% (w/v), alcohol 0.4% (v/v), pH 5.5), licoricidin 5 ppm): A (The bacterial count decreases to less than 10% of the bacterial count of the control group.)
- Antimicrobial activity (Japanese seasoned soup stock (salt 3% (w/v), alcohol 0.4% (v/v), pH 5.5), licoricidin 10 ppm): A (The bacterial count decreases to less than 10% of the bacterial count of the control group.)
- Antimicrobial activity (Japanese seasoned soup stock (salt 3% (w/v), alcohol 0.4% (v/v), pH 5.5), licoricidin 25 ppm): A (The bacterial count decreases to less than 10% of the bacterial count of the control group.)
- Antimicrobial activity (Japanese seasoned soup stock (salt 3% (w/v), alcohol 0.4% (v/v), pH 5.5), licoricidin 50 ppm): A (The bacterial count decreases to less than 10% of the bacterial count of the control group.)
- Antimicrobial activity (Sauce (salt 5.3% (w/v), alcohol 0.8% (v/v), pH 5.0), licoricidin 1 ppm): B (The bacterial count decreases to 10% or more and less than 50% of the bacterial count of the control group.)
- Antimicrobial activity (Sauce (salt 5.3% (w/v), alcohol 0.8% (v/v), pH 5.0), licoricidin 5 ppm): B (The bacterial count decreases to 10% or more and less than 50% of the bacterial count of the control group.)
- Antimicrobial activity (Sauce (salt 5.3% (w/v), alcohol 0.8% (v/v), pH 5.0), licoricidin 10 ppm): A (The bacterial count decreases to less than 10% of the bacterial count of the control group.)
- Antimicrobial activity (Sauce (salt 5.3% (w/v), alcohol 0.8% (v/v), pH 5.0), licoricidin 25 ppm): A (The bacterial count decreases to less than 10% of the bacterial count of the control group.)
- Antimicrobial activity (Sauce (salt 5.3% (w/v), alcohol 0.8% (v/v), pH 5.0), licoricidin 50 ppm): A (The bacterial count decreases to less than 10% of the bacterial count of the control group.)
- Antimicrobial activity (Soy sauce, salt 0% (w/v), alcohol 0% (v/v), licoricidin 1 ppm): C (The bacterial count decreases to 50% or more and less than 100% of the bacterial count of control group.)
- Antimicrobial activity (Soy sauce, salt 0% (w/v), alcohol 0% (v/v), licoricidin 5 ppm): C (The bacterial count decreases to 50% or more and less than 100% of the bacterial count of control group.)
- Antimicrobial activity (Soy sauce, salt 0% (w/v), alcohol 0% (v/v), licoricidin 10 ppm): B (The bacterial count decreases to 10% or more and less than 50% of the bacterial count of the control group.)
- Antimicrobial activity (Soy sauce, salt 0% (w/v), alcohol 0% (v/v), licoricidin 25 ppm): A (The bacterial count decreases to less than 10% of the bacterial count of the control group.)
- Antimicrobial activity (Soy sauce, salt 0% (w/v), alcohol 0% (v/v), licoricidin 50 ppm): A (The bacterial count decreases to less than 10% of the bacterial count of the control group.)
- Antimicrobial activity (Soy sauce, salt 4% (w/v), alcohol 0% (v/v), licoricidin 1 ppm): C (The bacterial count decreases to 50% or more and less than 100% of the bacterial count of control group.)
- Antimicrobial activity (Soy sauce, salt 4% (w/v), alcohol 0% (v/v), licoricidin 5 ppm): A (The bacterial count decreases to less than 10% of the bacterial count of the control group.)
- Antimicrobial activity (Soy sauce, salt 4% (w/v), alcohol 0% (v/v), licoricidin 10 ppm): A (The bacterial count decreases to less than 10% of the bacterial count of the control group.)
- Antimicrobial activity (Soy sauce, salt 4% (w/v), alcohol 0% (v/v), licoricidin 25 ppm): A (The bacterial count decreases to less than 10% of the bacterial count of the control group.)
- Antimicrobial activity (Soy sauce, salt 4% (w/v), alcohol 0% (v/v), licoricidin 50 ppm): A (The bacterial count decreases to less than 10% of the bacterial count of the control group.)
- Antimicrobial activity (Soy sauce, salt 8% (w/v), alcohol 0% (v/v), licoricidin 1 ppm): D
- Antimicrobial activity (Soy sauce, salt 8% (w/v), alcohol 0% (v/v), licoricidin 5 ppm): A (The bacterial count decreases to less than 10% of the bacterial count of the control group.)
- Antimicrobial activity (Soy sauce, salt 8% (w/v), alcohol 0% (v/v), licoricidin 10 ppm): A (The bacterial count decreases to less than 10% of the bacterial count of the control group.)
- Antimicrobial activity (Soy sauce, salt 8% (w/v), alcohol 0% (v/v), licoricidin 25 ppm): A (The bacterial count decreases to less than 10% of the bacterial count of the control group.)
- Antimicrobial activity (Soy sauce, salt 8% (w/v), alcohol 0% (v/v), licoricidin 50 ppm): A (The bacterial count decreases to less than 10% of the bacterial count of the control group.)
- Antimicrobial activity (Soy sauce, salt 12% (w/v), alcohol 0% (v/v), licoricidin 1 ppm): B (The bacterial count decreases to 10% or more and less than 50% of the bacterial count of the control group.)
- Antimicrobial activity (Soy sauce, salt 12% (w/v), alcohol 0% (v/v), licoricidin 5 ppm): A (The bacterial count decreases to less than 10% of the bacterial count of the control group.)
- Antimicrobial activity (Soy sauce, salt 12% (w/v), alcohol 0% (v/v), licoricidin 10 ppm): A (The bacterial count decreases to less than 10% of the bacterial count of the control group.)
- Antimicrobial activity (Soy sauce, salt 12% (w/v), alcohol 0% (v/v), licoricidin 25 ppm): A (The bacterial count decreases to less than 10% of the bacterial count of the control group.)
- Antimicrobial activity (Soy sauce, salt 12% (w/v), alcohol 0% (v/v), licoricidin 50 ppm): A (The bacterial count decreases to less than 10% of the bacterial count of the control group.)
